# Measured values: patent US10064865B2, “Composition comprising phosphodiesterase type 5 inhibitor for inhibiting apoptosis of nerve cells” (ARIBIO INC., priority 2012, dated 2018)
# Marks after values point to notes of the source that are not given here.
# What was measured:
# Format in all cases: in vivo, Sprague-Dawley (SD) rats
# [1] = system: neuron apoptosis-operated rats; test: Example 1 forelimb placing test
# Procedure: (§1) Sensorimotor function was evaluated by use of limb placing de Ryck M et al., Stroke. 20:1383-90(1989)) and body swing (Borlongan and Sanberg, J Neurosci. 15:5372-8(1995)) tests. These tests were performed one day before neuron apoptosis to obtain a baseline and then at 1, 3, 7, 14, 21 and 28 days after neuron apoptosis. Behavioral tests were done before drug administration on days when both were scheduled. The investigator performing the surgery and behavioral assessments was blinded to treatment assignment.
# (§2) Limb placing test: Forelimb and hindlimb placement were assessed independently. For the forelimb placing test, the rats were held by their torso with their forepaws hanging free and moved slowly toward the edge of a tabletop, stopping short of touching the vibrissae (for vision-induced placing), touching the vibrissae (for vibrissae-induced placing), making light contact with the front of the forepaw to the edge of the tabletop (for tactile-induced placing), and pressing the forepaws to the edge of the table with increased pressure (for proprioceptive-induced placing). Hindlimb placing was conducted in the same manner as above but with tactile and proprioceptive stimulation applied to the front/top of each hindlimb. Each limb for placing in response to visual, vibrissae, tactile, and proprioceptive stimulation are scored in the following manner (A total of 12 points in forelimb placing test and 6 points in hindlimb placing test means maximal neurological deficit, and 0 points means normal performance):
# (§3) Normal performance=0 points;
# (§4) Performance with unilateral limb=1 point;
# (§5) Performance with a delay (2 seconds) and/or incomplete=2 point;
# (§6) All data were expressed as mean±standard deviation (S.D.) of ten rats. Multiple comparison tests for different dose groups were conducted. Variance homogeneity was examined using the Levene test (Levene A, Clin Otalary, 1981; 6:145-51). […] Statistical analyses were conducted using SPSS (Release 14K, SPSS Inc., USA; Ludbrook, Clin Exp Pharmacol Physiol, 1997; 24:294-6). In addition, the percent changes between neuron apoptosis control and mirodenafil treated rats were calculated to help the understanding of the efficacy of test material as follow equation 3. Percentage changes as compared with neuron apoptosis control (%)=[((Data of mirodenafil treated groups−Data of neuron apoptosis control)/Data of neuron apoptosis control)×100] [EQUATION 3]
# [2] = system: neuron apoptosis-operated rats; test: Example 1 hindlimb placing test
# Procedure: as §1, §2, §3, §4, §5, §6
# [3] = Example 2 body weight measurements; conditions: for Body weights at 29 days after surgery [B] / Weight gains [B − A]: 1 mg/kg s.c. once a day for 14 days; for Body weights at Before surgery / Body weights at surgery [A]: before treatment
# Procedure: Changes of body weight were measured at 1 day before neuron apoptosis, the day of neuron apoptosis, 1, 3, 7, 14, 21, 28 and 29 days after neuron apoptosis. […] Body weight gains (g) during 29 days after neuron apoptosis=(Body weight at the 29 days after neuron apoptosis−body weight at the day of neuron apoptosis) [EQUATION 5]
# All data were expressed as mean±standard deviation (S.D.) of ten rats. Multiple comparison tests for different dose groups were conducted. Variance homogeneity was examined using the Levene test (Levene A, Clin Otalary, 1981; 6:145-51). […] Statistical analyses were conducted using SPSS for Windows (Release 14K, SPSS Inc., USA; Ludbrook, Clin Exp Pharmacol Physiol, 1997; 24:294-6). In addition, the percent changes as compared with neuron apoptosis control and mirodenafil treated rats were calculated to help the understanding of the efficacy of test substances as follow Equation 6 and 7. Percentage Changes as Compared with Sham Control (%)=[((Data of neuron apoptosis control−Data of sham control rat)/Data of sham control rats)×100] [EQUATION 6] Percentage Changes as Compared with neuron apoptosis Control (%)=[((Data of test material treated rats−Data of neuron apoptosis control rats)/Data of neuron apoptosis control rats)×100] [EQUATION 7]
# [4] = 0.5 mg/kg group, day 1 after operation (before drug administration)
# [5] = 0.5 mg/kg group, day −1 (baseline)
# [6] = 0.5 mg/kg s.c. once a day, day 3 after operation
# [7] = 0.5 mg/kg s.c. once a day, day 7 after operation
# [8] = 0.5 mg/kg s.c. once a day, day 14 after operation
# [9] = 0.5 mg/kg s.c. once a day, day 21 after operation
# [10] = 0.5 mg/kg s.c. once a day, day 28 after operation
# [11] = 0.5 mg/kg, 3 days after surgery
# [12] = 0.5 mg/kg, 7 days after surgery
# [13] = 0.5 mg/kg, 14 days after surgery
# [14] = 0.5 mg/kg, 21 days after surgery
# [15] = 0.5 mg/kg, 28 days after surgery
# [16] = 1 mg/kg group, day 1 after operation (before drug administration)
# [17] = 1 mg/kg group, day −1 (baseline)
# [18] = 1 mg/kg s.c. once a day, day 3 after operation
# [19] = 1 mg/kg s.c. once a day, day 7 after operation
# [20] = 1 mg/kg s.c. once a day, day 14 after operation
# [21] = 1 mg/kg s.c. once a day, day 21 after operation
# [22] = 1 mg/kg s.c. once a day, day 28 after operation
# [23] = 2 mg/kg group, day 1 after operation (before drug administration)
# [24] = 2 mg/kg group, day −1 (baseline)
# [25] = 2 mg/kg s.c. once a day, day 3 after operation
# [26] = 2 mg/kg s.c. once a day, day 7 after operation
# [27] = 2 mg/kg s.c. once a day, day 14 after operation
# [28] = 2 mg/kg s.c. once a day, day 21 after operation
# [29] = 2 mg/kg s.c. once a day, day 28 after operation
compound,measurement,setting,value
"CCCOc1ccc(S(=O)(=O)N2CCN(CCO)CC2)cc1-c1nc2c(CCC)cn(CC)c2c(=O)[nH]1 [Mirodenafil, mirodenafil]",Forelimb placing test score,[1]; [4],12.00 ± 0.00^d
same,Forelimb placing test score,[1]; [5],0.70 ± 0.67
same,Forelimb placing test score,[1]; [6],8.00 ± 1.15^a
same,Forelimb placing test score,[1]; [7],7.80 ± 1.55^a
same,Forelimb placing test score,[1]; [8],6.80 ± 1.14^ac
same,Forelimb placing test score,[1]; [9],6.40 ± 1.17^a
same,Forelimb placing test score,[1]; [10],5.40 ± 1.07^a
same,"forelimb placing test scores, change as compared with neuron apoptosis control",[1]; [11],−3.61%
same,"forelimb placing test scores, change as compared with neuron apoptosis control",[1]; [12],−10.34%
same,"forelimb placing test scores, change as compared with neuron apoptosis control",[1]; [13],−12.82%
same,"forelimb placing test scores, change as compared with neuron apoptosis control",[1]; [14],−11.11%
same,"forelimb placing test scores, change as compared with neuron apoptosis control",[1]; [15],−12.90%
same,Forelimb placing test score,[1]; [16],12.00 ± 0.00^d
same,Forelimb placing test score,[1]; [17],0.70 ± 0.48
same,Forelimb placing test score,[1]; [18],6.80 ± 1.23^ab
same,Forelimb placing test score,[1]; [19],6.10 ± 1.20^ab
same,Forelimb placing test score,[1]; [20],5.30 ± 1.06^ab
same,Forelimb placing test score,[1]; [21],4.20 ± 1.23^ab
same,Forelimb placing test score,[1]; [22],2.70 ± 1.06^ab
same,"forelimb placing test scores, change as compared with neuron apoptosis control","[1]; 1 mg/kg, 3 days after surgery",−18.07%
same,"forelimb placing test scores, change as compared with neuron apoptosis control","[1]; 1 mg/kg, 7 days after surgery",−29.89%
same,"forelimb placing test scores, change as compared with neuron apoptosis control","[1]; 1 mg/kg, 14 days after surgery",−32.05%
same,"forelimb placing test scores, change as compared with neuron apoptosis control","[1]; 1 mg/kg, 21 days after surgery",−41.67%
same,"forelimb placing test scores, change as compared with neuron apoptosis control","[1]; 1 mg/kg, 28 days after surgery",−56.45%
same,Forelimb placing test score,[1]; [23],12.00 ± 0.00^d
same,Forelimb placing test score,[1]; [24],0.60 ± 0.70
same,Forelimb placing test score,[1]; [25],6.20 ± 0.92^ab
same,Forelimb placing test score,[1]; [26],5.70 ± 0.67^ab
same,Forelimb placing test score,[1]; [27],4.70 ± 0.67^ab
same,Forelimb placing test score,[1]; [28],4.10 ± 0.88^ab
same,Forelimb placing test score,[1]; [29],2.60 ± 0.84^ab
same,"forelimb placing test scores, change as compared with neuron apoptosis control","[1]; 2 mg/kg, 3 days after surgery",−25.30%
same,"forelimb placing test scores, change as compared with neuron apoptosis control","[1]; 2 mg/kg, 7 days after surgery",−34.48%
same,"forelimb placing test scores, change as compared with neuron apoptosis control","[1]; 2 mg/kg, 14 days after surgery",−39.74%
same,"forelimb placing test scores, change as compared with neuron apoptosis control","[1]; 2 mg/kg, 21 days after surgery",−43.06%
same,"forelimb placing test scores, change as compared with neuron apoptosis control","[1]; 2 mg/kg, 28 days after surgery",−58.06%
same,Hindlimb placing test score,[2]; [4],6.00 ± 0.00^d
same,Hindlimb placing test score,[2]; [5],0.50 ± 0.71
same,Hindlimb placing test score,[2]; [6],4.00 ± 0.82^a
same,Hindlimb placing test score,[2]; [7],3.20 ± 0.79^a
same,Hindlimb placing test score,[2]; [8],2.80 ± 0.63^d
same,Hindlimb placing test score,[2]; [9],2.60 ± 0.70^a
same,Hindlimb placing test score,[2]; [10],2.40 ± 0.97^a
same,"hindlimb placing test scores, change as compared with neuron apoptosis control",[2]; [11],−6.98%
same,"hindlimb placing test scores, change as compared with neuron apoptosis control",[2]; [12],−8.57%
same,"hindlimb placing test scores, change as compared with neuron apoptosis control",[2]; [13],−9.68%
same,"hindlimb placing test scores, change as compared with neuron apoptosis control",[2]; [14],−13.33%
same,"hindlimb placing test scores, change as compared with neuron apoptosis control",[2]; [15],−11.11%
same,Hindlimb placing test score,[2]; [16],6.00 ± 0.00^d
same,Hindlimb placing test score,[2]; [17],0.30 ± 0.48
same,Hindlimb placing test score,[2]; [18],3.50 ± 0.71^ac
same,Hindlimb placing test score,[2]; [19],2.50 ± 0.71^ab
same,Hindlimb placing test score,[2]; [20],2.10 ± 0.57^df
same,Hindlimb placing test score,[2]; [21],1.70 ± 0.48^ab
same,Hindlimb placing test score,[2]; [22],1.10 ± 0.74^ab
same,"hindlimb placing test scores, change as compared with neuron apoptosis control","[2]; 1 mg/kg, 3 days after surgery",−18.80%
same,"hindlimb placing test scores, change as compared with neuron apoptosis control","[2]; 1 mg/kg, 7 days after surgery",−28.57%
same,"hindlimb placing test scores, change as compared with neuron apoptosis control","[2]; 1 mg/kg, 14 days after surgery",−32.26%
same,"hindlimb placing test scores, change as compared with neuron apoptosis control","[2]; 1 mg/kg, 21 days after surgery",−43.33%
same,"hindlimb placing test scores, change as compared with neuron apoptosis control","[2]; 1 mg/kg, 28 days after surgery",−59.26%
same,Hindlimb placing test score,[2]; [23],6.00 ± 0.00^d
same,Hindlimb placing test score,[2]; [24],0.40 ± 0.52
same,Hindlimb placing test score,[2]; [25],3.30 ± 0.67^ab
same,Hindlimb placing test score,[2]; [26],2.30 ± 0.82^ab
same,Hindlimb placing test score,[2]; [27],1.80 ± 1.03^de
same,Hindlimb placing test score,[2]; [28],1.60 ± 0.84^ab
same,Hindlimb placing test score,[2]; [29],1.10 ± 0.57^ab
same,"hindlimb placing test scores, change as compared with neuron apoptosis control","[2]; 2 mg/kg, 3 days after surgery",−23.26%
same,"hindlimb placing test scores, change as compared with neuron apoptosis control","[2]; 2 mg/kg, 7 days after surgery",−34.29%
same,"hindlimb placing test scores, change as compared with neuron apoptosis control","[2]; 2 mg/kg, 14 days after surgery",−41.94%
same,"hindlimb placing test scores, change as compared with neuron apoptosis control","[2]; 2 mg/kg, 21 days after surgery",−46.67%
same,"hindlimb placing test scores, change as compared with neuron apoptosis control","[2]; 2 mg/kg, 28 days after surgery",−59.26%
same,"body weight gains during 29 days, change as compared with neuron apoptosis control",[3]; 1 mg/kg from 24 hrs after surgery,43.24%
same,"body weight gains during 29 days, change as compared with neuron apoptosis control",[3]; 1 mg/kg from 72 hrs after surgery,33.78%
same,"body weight gains during 29 days, change as compared with neuron apoptosis control",[3]; 1 mg/kg from 168 hrs after surgery,11.04%
same,Body weights at 29 days after surgery [B],[3]; start 24 hrs after operation,357.13 ± 15.38^ab g
same,Weight gains [B − A],[3]; start 24 hrs after operation,79.50 ± 14.09^ab g
same,Body weights at 29 days after surgery [B],[3]; start 72 hrs after operation,349.38 ± 10.28^ac g
same,Weight gains [B − A],[3]; start 72 hrs after operation,74.25 ± 14.95^ab g
same,Body weights at 29 days after surgery [B],[3]; start 168 hrs after operation,338.63 ± 15.26^a g
same,Weight gains [B − A],[3]; start 168 hrs after operation,61.63 ± 6.78^a g
same,Body weights at Before surgery,[3]; 1 mg/kg start 24 hrs group,307.75 ± 15.84 g
same,Body weights at surgery [A],[3]; 1 mg/kg start 24 hrs group,277.63 ± 15.07 g
same,Body weights at Before surgery,[3]; 1 mg/kg start 72 hrs group,307.25 ± 11.36 g
same,Body weights at surgery [A],[3]; 1 mg/kg start 72 hrs group,275.13 ± 12.21 g
same,Body weights at Before surgery,[3]; 1 mg/kg start 168 hrs group,307.88 ± 10.53 g
same,Body weights at surgery [A],[3]; 1 mg/kg start 168 hrs group,277.00 ± 10.41 g
